US6384074B1, “Cell growth activating composition containing compound having labdane structure” (Takasago International Corporation, priority 1998, dated 2002)

How the values were obtained:
B16 melanoma cells [1] = test: Melanin formation prevention test (melanin production and cell proliferation); type: cell-based; conditions: for Degree of cell proliferation: relative to ethanol control
Method: B16 melanoma cells were suspended (10,000 cells/ml) in DMEM (Dulbecco's modified eagle medium) containing 10% FBS (fetal bovine serum) and 8 ml of the suspension was added to a cell culture bottle with a 25 cm^2 bottom surface area, and cultured at 37° C. in the presence of 5% carbon dioxide for 3 days. After 3 days of culture, the old medium was exchanged with 8 ml of fresh medium. 40 micro-liters of a sample solution, in which compounds of the present invention had been dissolved in ethanol to give a final concentration shown in the table, were further added thereto. As the control, ethanol only was added. After the medium change, the cells were further cultured for 3 days under the same conditions. After culture was finished, the medium was removed, and the cells were recovered by treatment with trypsin (DIFCO) and suspended in 4 ml of phosphate buffered saline (PBS) and a predetermined amount ( 1/40) of this suspension was used to measure the number of cells in a Coultar counter (Sysmex Co.) to determine the degree of cell proliferation.
The degree of cell proliferation was determined according to the following equations:
Degree of cell proliferation (%)=(number of cells in sample)/(number of cells in control)×100
The remainder of the cell suspension was centrifuged and then washed with 5% trichloroacetic acid, then with ethanol/ethyl ether (3:1 by volume), and with ethyl ether and the cells were dried, and 2N—NaOH was added thereto to dissolve (melanin in) the cells under heating at 70° C. and measured for its optical density (OD) at 420 nm. Using a calibration curve of synthetic melanin, the amount of melanin/million cells was determined from the OD and the degree of inhibition of melanin production was determined according to the following equation:
Degree of inhibition of melanin (%)=(amount of melanin in control−amount of melanin in sample)/(amount of melanin in control)×100

[2] = test system: Human-derived normal skin fibroblasts (NB1RGB); test: Test of cell activating activity (fibroblast proliferation); type: cell-based; conditions: relative to ethanol control (100)
Method: Human-derived normal skin fibroblasts (NB1RGB: Institute of Physical and Chemical Research) were suspended into DMEM containing 10% FBS to give a concentration of 20,000 cells/ml, and 5 ml each of this cellular suspension was introduced into each of 25 cm^2 bottles, cultured at 37° C. in the presence of 5% carbon dioxide for 24 hours. To each bottle, was added 10 micro-liter (0.2%) of the ethanol solution containing the compound to give the final concentration shown in Table 8. The cells were cultured for an additional 3 days. After 3 days the old medium was discarded and 5 ml fresh medium was added, and the sample was further added thereto. After this exchange of the medium, the cells were further cultured for another 3 days. Then cells were removed with trypsin and the number of cells in each bottle was counted with a Coultar counter. Simultaneously, as the control, only ethanol was added and the NB1RGB cells were cultured and the number of cells were counted in the same manner. The number of cells in each bottle to which the sample had been added was determined as a relative value to the number (as 100) of cells in the control after cultured, and the results are shown in Table 8.

B16 melanoma cells [3] = test: Combination test with existing tyrosinase inhibitors (method of Test Example 1); type: cell-based; conditions: alone
Method: B16 melanoma cells were suspended (10,000 cells/ml) in DMEM (Dulbecco's modified eagle medium) containing 10% FBS (fetal bovine serum) and 8 ml of the suspension was added to a cell culture bottle with a 25 cm^2 bottom surface area, and cultured at 37° C. in the presence of 5% carbon dioxide for 3 days. After 3 days of culture, the old medium was exchanged with 8 ml of fresh medium. 40 micro-liters of a sample solution, in which compounds of the present invention had been dissolved in ethanol to give a final concentration shown in the table, were further added thereto. As the control, ethanol only was added. After the medium change, the cells were further cultured for 3 days under the same conditions. […] Degree of cell proliferation (%)=(number of cells in sample)/(number of cells in control)×100 […] Using a calibration curve of synthetic melanin, the amount of melanin/million cells was determined from the OD and the degree of inhibition of melanin production was determined according to the following equation: Degree of inhibition of melanin (%)=(amount of melanin in control−amount of melanin in sample)/(amount of melanin in control)×100 […]

[4] = test system: mushroom-derived tyrosinase; test: Mushroom tyrosinase inhibition test; type: biochemical; conditions: L-tyrosine substrate, 37° C. 30 minutes
Method: After reaction, the absorbance (OD) at a wavelength of 490 nm was measured and the degree of inhibition of tyrosinase reaction was determined according to the following equation. […] Sample: The buffer, the enzyme solution, the substrate solution and the sample solution Sample-free: The buffer, the enzyme solution and the substrate solution Blank: The buffer and the enzyme solution

[5] = target: T1, tyrosinase in B16 melanoma cells (Mus musculus, UniProt P11344); test: Test of tyrosinase inhibition in B16 melanoma cells (crude enzyme solution); type: biochemical; conditions: L-DOPA substrate, 37° C. 3 hours; for Degree of inhibition of tyrosinase in B16 melanoma cells: 25 ppm
T1 construct: the resulting supernatant was used as a crude enzyme solution; endogenous in cells; host or cells: B16 melanoma cells (Triton X100 lysate, sonicated, 11,000 G supernatant)
T1 sequence (P11344 19-533): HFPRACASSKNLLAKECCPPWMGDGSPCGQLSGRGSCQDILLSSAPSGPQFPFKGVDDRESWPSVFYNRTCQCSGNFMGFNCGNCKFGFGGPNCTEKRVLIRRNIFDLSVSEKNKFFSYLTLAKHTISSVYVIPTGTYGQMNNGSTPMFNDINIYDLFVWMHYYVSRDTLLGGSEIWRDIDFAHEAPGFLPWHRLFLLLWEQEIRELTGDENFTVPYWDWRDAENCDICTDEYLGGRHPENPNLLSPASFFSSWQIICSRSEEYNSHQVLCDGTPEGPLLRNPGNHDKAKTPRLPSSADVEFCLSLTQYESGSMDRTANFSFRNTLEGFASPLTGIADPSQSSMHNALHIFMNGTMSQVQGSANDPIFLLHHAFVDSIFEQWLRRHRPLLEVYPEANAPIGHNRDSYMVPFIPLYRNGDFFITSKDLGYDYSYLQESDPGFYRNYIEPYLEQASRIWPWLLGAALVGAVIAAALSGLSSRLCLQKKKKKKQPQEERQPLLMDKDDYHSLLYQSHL
Method: B16 melanoma cells were cultured for 3 days in DMEM containing 10% FBS at 37° C. in the presence of 5% carbon dioxide. The cells proliferated after culture were recovered by treatment with trypsin, then suspended in PBS containing 0.1% Triton X100 at a density of ten million cells/ml and disrupted by sonication. The product obtained was centrifuged at 11,000 G for 20 minutes, and the resulting supernatant was used as a crude enzyme solution. Added thereto was 0.2 ml of crude enzyme solution. The mixture was preliminarily kept at 37° C. for 5 minutes, and 0.2 ml L-DOPA solution (0.5 mg/ml) was added as the substrate, and the mixture was kept at 37° C. for 3 hours.

[6] = test system: Bacillus subtilis PCI 219 IFO 3134; test: Anti-bacterial activity test, agar medium dilution method; type: cell-based; conditions: Bs-1
Method: (§1) The aerobic microorganisms were examined in an agar medium dilution method and the anaerobic microorganisms were examined in a liquid medium dilution method under anaerobic culture conditions. Muller Hinton agar medium (DIFCO) was heated and dissolved and 10 ml of the medium was introduced into each test tube, sterilized and used. The sample was prepared by dissolving in ethanol and the resulting ethanol solution was diluted 2-fold serially with ethanol, and 100 micro-liters of sample solution were added to 10 ml of each dissolved agar medium, then stirred, introduced into a Petri dish of 9 cm in diameter, and solidified at room temperature. Each test microorganism in a well grown slant was inoculated via one loop of platinum into 10 ml Muller Hinton broth (DIFCO) and cultured with shaking at 27° C. for 24 hours and used as a microbial fluid. This fluid was diluted at 10^8 CFU (Colony forming unit)/ml, and 5 micro-liters of the diluted fluid were inoculated onto the agar and cultured at 37° C. overnight. Inoculation of the microorganism was conducted using microplanter MIT-P for 27 tubes test microorganisms (Sakuma Seisakusho K. K.).

[7] = test system: Corynebacterium minutissimum ATCC 23348; test: as above; type: cell-based; conditions: Cm-1
Method: as §1

[8] = test system: Corynebacterium xerosis JCM 1324; test: as above; type: cell-based; conditions: Cx-2
Method: as §1

[9] = test system: Malassezia furfur IFO 0656; test: as above; type: cell-based; conditions: Mf-1
Method: as §1

[10] = test system: Staphylococcus aureus IFO 12732; test: as above; type: cell-based; conditions: Sa-3
Method: as §1

[11] = test system: Staphylococcus epidermidis JCM 2414; test: as above; type: cell-based; conditions: Se-1
Method: as §1

[12] = test system: Staphylococcus epidermidis var. H-6; test: as above; type: cell-based; conditions: Se-2
Method: as §1

[13] = 0.4 ppm, Table 2, combined use with arbutin
[14] = 0.4 ppm, Table 4, combined use with ellagic acid

Structure (SMILES): CCOC(=O)CC(C)CCC1=C(C)CCC2C(C)(C)CCCC12C (centres unmarked) [Compound 3, labd-8-en-15-oic acid ethyl ester]
- Degree of melanin inhibition (B16 melanoma cells [1]; 6.3 ppm, 3 days): 74%
- Degree of cell proliferation (B16 melanoma cells [1]; 6.3 ppm): 115%
- Degree of cell proliferation of fibroblasts ([2]; 8.0 ppm): 134%

Structure (SMILES): CC1=CCC2C(C)(C)CCCC2(C)C1CCC(C)CC(=O)O (centres unmarked) [Compound 4, labd-7-en-15-oic acid]
- Degree of melanin inhibition (B16 melanoma cells [1]; 6.3 ppm, 3 days): 87%
- Degree of cell proliferation (B16 melanoma cells [1]; 6.3 ppm): 109%
- Degree of cell proliferation (B16 melanoma cells [3]; [13]): 115%
- Degree of melanin inhibition (B16 melanoma cells [3]; [13]): 28%
- Degree of inhibition of mushroom tyrosinase ([4]; 25 ppm): 0%
- Degree of inhibition of tyrosinase in B16 melanoma cells [5]: 0%
- MIC [6]: 12.5 ppm
- MIC [7]: 6.3 ppm
- MIC [8]: 12.5 ppm
- MIC [9]: 6.3 ppm
- MIC [10]: 12.5 ppm
- MIC [11]: 12.5 ppm
- MIC [12]: 12.5 ppm

Structure (SMILES): CCOC(=O)CC(C)CCC1C(C)=CCC2C(C)(C)CCCC12C (centres unmarked) [Compound 6, labd-7-en-15-oic acid ethyl ester]
- Degree of melanin inhibition (B16 melanoma cells [1]; 6.3 ppm, 3 days): 74%
- Degree of cell proliferation (B16 melanoma cells [1]; 6.3 ppm): 109%
- Degree of cell proliferation of fibroblasts ([2]; 8.0 ppm): 134%

Structure (SMILES): C=C1CCC2C(C)(C)CCCC2(C)C1CCC(C)CC(=O)OCC (centres unmarked) [Compound 9, labd-8(17)-en-15-oic acid ethyl ester]
- Degree of melanin inhibition (B16 melanoma cells [1]; 6.3 ppm, 3 days): 61%
- Degree of cell proliferation (B16 melanoma cells [1]; 6.3 ppm): 103%
- Degree of cell proliferation of fibroblasts ([2]; 8.0 ppm): 127%

Structure (SMILES): O=c1oc2c(O)c(O)cc3c(=O)oc4c(O)c(O)cc1c4c23 [Ellagic acid, reference compound]
- Degree of cell proliferation (B16 melanoma cells [1]; 3.1 ppm): 98%
- inhibition at 3.1 ppm (B16 melanoma cells [1]; Mus musculus, 72 h, 3.1 ppm, 3 days, read-out: Degree of melanin inhibition): 68%
- Degree of cell proliferation (B16 melanoma cells [3]; 1.6 ppm, Table 4, combined use with ellagic acid): 98%
- inhibition at 1.6 ppm (B16 melanoma cells [3]; Mus musculus, B16, 1.6 ppm, Table 4, combined use with ellagic acid, read-out: Degree of melanin inhibition): 17%

Structure (SMILES): OC[C@H]1O[C@@H](Oc2ccc(O)cc2)[C@H](O)[C@@H](O)[C@@H]1O [Arbutin, reference compound]
- Degree of cell proliferation (B16 melanoma cells [1]; 6.3 ppm): 100%
- inhibition at 6.3 ppm (B16 melanoma cells [1]; Mus musculus, 72 h, 6.3 ppm, 3 days, read-out: Degree of melanin inhibition): 74%
- Degree of cell proliferation (B16 melanoma cells [3]; 0.8 ppm, Table 2, combined use with arbutin): 89%
- inhibition at 0.8 ppm (B16 melanoma cells [3]; Mus musculus, B16, 0.8 ppm, Table 2, combined use with arbutin, read-out: Degree of melanin inhibition): 22%
- Degree of inhibition of mushroom tyrosinase ([4]; 100 ppm): 29%
- inhibition at 100 ppm ([5]; 100 ppm, read-out: Degree of inhibition of tyrosinase in B16 melanoma cells): 35%

Structure (SMILES): O=C(O)CO [Glycolic acid, reference compound]
- Degree of cell proliferation of fibroblasts ([2]; 4.0 ppm): 120%

Structure (SMILES): C=C1CCC2C(C)(C)CCCC2(C)C1CCC(C)CC(=O)O (centres unmarked) [Compound 7, labd-8(17)-en-15-oic acid]
- Degree of melanin inhibition (B16 melanoma cells [1]; 6.3 ppm, 3 days): 79%
- Degree of cell proliferation (B16 melanoma cells [1]; 6.3 ppm): 111%
- Degree of cell proliferation (B16 melanoma cells [3]; [14]): 111%
- Degree of melanin inhibition (B16 melanoma cells [3]; [14]): 30%
- Degree of inhibition of mushroom tyrosinase ([4]; 25 ppm): 0%
- Degree of inhibition of tyrosinase in B16 melanoma cells [5]: 0%
- Degree of cell proliferation of fibroblasts ([2]; 8.0 ppm): 128%
- MIC [6]: 12.5 ppm
- MIC [7]: 12.5 ppm
- MIC [8]: 12.5 ppm
- MIC [9]: 6.3 ppm
- MIC [10]: 12.5 ppm
- MIC [11]: 6.3 ppm
- MIC [12]: 6.3 ppm
